Source: US11477982B2, “2-amino-5-oxyalkyl-pyrimidine derivatives and their use for controlling undesired plant growth” (Bayer CropScience Aktiengesellschaft, priority 2017, dated 2022)

Legend:
Format in all cases: in vivo
[1] = tested on: AMARE: Amaranthus retroflexus; assay: Post-emergence herbicidal effect; settings: dosage 320 g/ha
Procedure: (§1) 2. Post-Emergence Herbicidal Effect and Crop Plant Compatibility
(§2) Seeds of monocotyledonous and dicotyledonous weeds and crop plants are placed in sandy loam in plastic or wood-fiber pots, covered with soil and cultivated in a greenhouse under controlled growth conditions, 2 to 3 weeks after sowing, the test plants are treated at the one-leaf stage. The compounds of the invention, formulated in the form of wettable powders (WP) or as emulsion concentrates (EC), are then sprayed onto the green parts of the plants as aqueous suspension or emulsion with addition of 0.5% additive at a water application rate of 600 l/ha (converted). After the test plants had been kept in the greenhouse under optimum growth conditions for about 3 weeks, the activity of the preparations is rated visually in comparison to untreated controls. For example, 100% activity=the plants have died, 0% activity=like control plants.

[2] = tested on: STEME: Stellaria media; assay: Post-emergence herbicidal effect; settings: dosage 320 g/ha
Procedure: as §1, §2

[3] = tested on: ABUTH: Abutilon theophrasti; assay: Post-emergence herbicidal effect; settings: dosage 320 g/ha
Procedure: as §1, §2

[4] = tested on: ECHCG: Echinochloa crus-galli; assay: Post-emergence herbicidal effect; settings: dosage 320 g/ha
Procedure: as §1, §2

[5] = tested on: SETVI: Setaria viridis; assay: Post-emergence herbicidal effect; settings: dosage 320 g/ha
Procedure: as §1, §2

[6] = tested on: VERPE: Veronica persica; assay: Post-emergence herbicidal effect; settings: dosage 320 g/ha
Procedure: as §1, §2

[7] = tested on: VIOTR: Viola tricolor; assay: Post-emergence herbicidal effect; settings: dosage 320 g/ha
Procedure: as §1, §2

[8] = tested on: AMARE: Amaranthus retroflexus; assay: Pre-emergence herbicidal effect; settings: for Herbicidal action against AMARE: pre-emergence, dosage 320 g/ha
From the text: (§3) 1. Pre-Emergence Herbicidal Effect and Crop Plant Compatibility
(§4) Seeds of monocotyledonous and dicotyledonous weed plants and crop plants are placed in plastic or wood fiber pots and covered with soil. The compounds of the invention, formulated in the form of wettable powders (WP) or as emulsion concentrates (EC), are then applied onto the surface of the covering soil as aqueous suspension or emulsion with addition of 0.5% additive at a water application rate of 600 l/ha (converted).
(§5) After the treatment, the pots are placed in a greenhouse and kept under good growth conditions for the trial plants. After about 3 weeks, the effect of the preparations is scored visually in comparison with untreated controls as percentages. For example, 100% activity=the plants have died, 0% activity=like control plants.

[9] = tested on: PHBPU: Ipomoea purpurea; assay: Pre-emergence herbicidal effect; settings: for Herbicidal action against PHBPU: dosage 320 g/ha
From the text: as §3, §4, §5

[10] = tested on: STEME: Stellaria media; assay: Pre-emergence herbicidal effect; settings: for Herbicidal action against STEME: pre-emergence, dosage 320 g/ha
From the text: as §3, §4, §5

[11] = tested on: ABUTH: Abutilon theophrasti; assay: Pre-emergence herbicidal effect; settings: for Herbicidal action against ABUTH: dosage 320 g/ha
From the text: as §3, §4, §5

[12] = tested on: ECHCG: Echinochloa crus-galli; assay: Pre-emergence herbicidal effect; settings: for Herbicidal action against ECHCG: dosage 320 g/ha
From the text: as §3, §4, §5

[13] = tested on: AVEFA: Avena fatua; assay: Pre-emergence herbicidal effect; settings: dosage 320 g/ha
From the text: as §3, §4, §5

[14] = tested on: HORMU: Hordeum murinum; assay: Pre-emergence herbicidal effect; settings: for Herbicidal action against HORMU: pre-emergence, dosage 320 g/ha
From the text: as §3, §4, §5

[15] = tested on: SETVI: Setaria viridis; assay: Pre-emergence herbicidal effect; settings: for Herbicidal action against SETVI: dosage 320 g/ha
From the text: as §3, §4, §5

[16] = tested on: ALOMY: Alopecurus myosuroides; assay: Pre-emergence herbicidal effect; settings: for Herbicidal action against ALOMY: dosage 320 g/ha
From the text: as §3, §4, §5

[17] = tested on: VERPE: Veronica persica; assay: Pre-emergence herbicidal effect; settings: dosage 320 g/ha
From the text: as §3, §4, §5

[18] = tested on: MATIN: Matricaria inodora; assay: Pre-emergence herbicidal effect; settings: for Herbicidal action against MATIN: pre-emergence, dosage 320 g/ha
From the text: as §3, §4, §5

[19] = tested on: POLCO: Polygonum convolvulus; assay: Pre-emergence herbicidal effect; settings: for Herbicidal action against POLCO: dosage 320 g/ha
From the text: as §3, §4, §5

[20] = tested on: VIOTR: Viola tricolor; assay: Pre-emergence herbicidal effect; settings: dosage 320 g/ha
From the text: as §3, §4, §5

[21] = tested on: LOLRI: Lolium rigidum; assay: Pre-emergence herbicidal effect; settings: for Herbicidal action against LOLRI: dosage 320 g/ha
From the text: as §3, §4, §5

[22] = Table 4b, pre-emergence as titled, dosage 80 g of a.i./ha
[23] = Table 4a, dosage 20 g of a.i./ha
[24] = Table 4a, pre-emergence, dosage 20 g of a.i./ha

Structure (SMILES) | Herbicidal action against AMARE [1] [%] | Herbicidal action against STEME [2] [%] | Herbicidal action against ABUTH [3] [%] | Herbicidal action against ECHCG [4] [%] | Herbicidal action against SETVI [5] [%] | Herbicidal action against VERPE [6] [%] | Herbicidal action against VIOTR [7] [%] | Herbicidal action against AMARE [8] [%] | Herbicidal action against PHBPU [9] [%] | Herbicidal action against STEME [10] [%] | Herbicidal action against ABUTH [11] [%] | Herbicidal action against ECHCG ([12]; pre-emergence) [%] | Herbicidal action against AVEFA [13] [%] | Herbicidal action against HORMU [14] [%] | Herbicidal action against SETVI ([15]; pre-emergence) [%] | Herbicidal action against ALOMY ([16]; pre-emergence) [%] | Herbicidal action against VERPE [17] [%] | Herbicidal action against MATIN [18] [%] | Herbicidal action against POLCO [19] [%] | Herbicidal action against VIOTR [20] [%] | further results
CC1Cc2ccccc2C1Nc1ncc(C(C)(C)O)cn1 (mixture of isomers) [Example 1.55] | 90 | 90 | 90 | 100 | 100 | 90 | 90 | 100 | 90 | 100 | 100 | 100 | 100 | 100 | 100 | 90 | 100 | 100 | 100 | 100 | Herbicidal action against LOLRI [21]: 100%
Cc1ccc2c(c1)C(Nc1ncc(C(C)(C)O)cn1)CCC2 (racemic) [Example 1.43] | 90 | 100 | 90 | 100 | 90 | 90 | 90 | 100 | 100 | 100 | 100 | 100 | 100 | 100 | 100 | 100 | 100 | 100 | 100 | 100 | Herbicidal action against LOLRI [21]: 100%
Cc1ccc2c(c1)C(Nc1ncc(C(C)(C)O)c(C)n1)CCC2 (racemic) [Example 1.52] | 90 | 100 | 90 | 100 | 80 | 90 | 90 | 100 | 100 | 100 | 100 | 100 | 100 | 100 | 100 | 100 | 100 | 100 | 100 | 100 | Herbicidal efficacy against AMARE [8, 22]: 80; Herbicidal efficacy against PHBPU [9, 23]: 100; Herbicidal efficacy against STEME [10, 22]: 90; Herbicidal efficacy against ABUTH [11, 23]: 100; Herbicidal efficacy against ECHCG [12, 24]: 100; Herbicidal efficacy against ECHCG [12, 22]: 70; Herbicidal efficacy against HORMU [14, 22]: 90; Herbicidal efficacy against SETVI [15, 24]: 100; Herbicidal efficacy against SETVI [15, 22]: 80; Herbicidal efficacy against ALOMY [16, 24]: 90; Herbicidal efficacy against ALOMY [16, 22]: 90; Herbicidal efficacy against MATIN [18, 22]: 70; Herbicidal efficacy against POLCO [19, 23]: 100; Herbicidal efficacy against LOLRI [21, 23]: 60; Herbicidal action against LOLRI [21]: 100%
Cc1ccc2c(c1)[C@H](Nc1ncc(C(C)(C)O)cn1)CC2 [Example 1.5] | 100 | 100 | 100 | 100 | 90 | 90 | 90 | 100 | 100 | 100 | 100 | 100 | 100 | 100 | 100 | 100 | 100 | 100 | 100 | 100 | Herbicidal action against LOLRI [21]: 100%
CC(C)(O)c1cnc(N[C@@H]2CCc3ccccc32)nc1 [Example 1.30] | 100 | 100 | 90 | 100 | 90 | 80 | 90 | 100 |  |  |  |  |  |  |  |  | 100 | 100 | 100 | 100 | 
Cc1ccc2c(c1)[C@H](Nc1ncc(C(C)(C)O)cn1)CCO2 [Example 1.38] | 100 | 100 | 90 | 100 | 90 | 90 | 90 | 100 |  |  |  |  |  |  |  |  | 100 | 100 | 100 | 100 | 
CCC(O)(c1cnc(N[C@H]2c3cc(C)ccc3C[C@@H]2C)nc1)C(F)(F)F (some centres unmarked) [Example 1.58] | 90 | 90 | 90 | 100 | 90 | 90 | 90 | 100 |  |  |  |  |  |  |  |  | 100 | 100 | 100 | 100 | 
Cc1ccc2c(c1)[C@H](Nc1ncc(C(C)(O)C3(C)CC3)cn1)[C@@H](C)C2 (some centres unmarked) [Example 1.61] | 90 | 90 | 90 | 100 |  |  |  | 100 | 90 | 100 | 100 | 100 | 80 | 100 | 100 | 100 | 100 | 100 | 100 | 100 | Herbicidal action against LOLRI [21]: 100%
